From PubChem BioAssay (NCI)
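A five-concentration, 48-hour dose response in 96-well plates underlies each endpoint, interpolated linearly between surrounding concentrations. TGI: total growth inhibition.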

Experiments:
Test in all cases: inhibition of tumour cell growth, NCI panel, 48 h
EKVX NSCLC = test system: EKVX NSCLC
A498 renal = test system: A498 renal
NCI-H226 lung = test system: NCI-H226 lung
HCT-15 colon = test system: HCT-15 colon
IGROV1 ovarian = test system: IGROV1 ovarian
HOP-62 NSCLC = test system: HOP-62 NSCLC
DU-145 prostate = test system: DU-145 prostate
SNB-75 CNS = test system: SNB-75 CNS
SNB-19 CNS = test system: SNB-19 CNS
NCI-H23 lung = test system: NCI-H23 lung
LOX IMVI melanoma = test system: LOX IMVI melanoma
UACC-62 melanoma = test system: UACC-62 melanoma
NCI-H522 lung = test system: NCI-H522 lung
SN12C renal = test system: SN12C renal
NCI/ADR-RES ovarian = test system: NCI/ADR-RES ovarian
HCC-2998 colon = test system: HCC-2998 colon
SF-539 CNS = test system: SF-539 CNS
HT29 colon = test system: HT29 colon
UO-31 renal = test system: UO-31 renal
SF-268 CNS = test system: SF-268 CNS
RPMI-8226 leukemia = test system: RPMI-8226 leukemia
SW-620 colon = test system: SW-620 colon
MDA-MB-231 breast = test system: MDA-MB-231 breast
CAKI-1 renal = test system: CAKI-1 renal
MDA-MB-435 = test system: MDA-MB-435
SK-MEL-2 melanoma = test system: SK-MEL-2 melanoma
MALME-3M melanoma = test system: MALME-3M melanoma
HCT-116 colon = test system: HCT-116 colon
COLO 205 colon = test system: COLO 205 colon
OVCAR-4 ovarian = test system: OVCAR-4 ovarian
NCI-H460 lung = test system: NCI-H460 lung
SK-MEL-5 melanoma = test system: SK-MEL-5 melanoma
MDA-N = test system: MDA-N
U251 CNS = test system: U251 CNS
ACHN renal = test system: ACHN renal
MOLT-4 leukemia = test system: MOLT-4 leukemia
SK-OV-3 ovarian = test system: SK-OV-3 ovarian
K-562 leukemia = test system: K-562 leukemia
CCRF-CEM leukemia = test system: CCRF-CEM leukemia
HL-60(TB) leukemia = test system: HL-60(TB) leukemia
MCF7 breast = test system: MCF7 breast
SK-MEL-28 melanoma = test system: SK-MEL-28 melanoma
SR leukemia = test system: SR leukemia
HS 578T breast = test system: HS 578T breast
OVCAR-5 ovarian = test system: OVCAR-5 ovarian
TK-10 renal = test system: TK-10 renal
T-47D breast = test system: T-47D breast
A549 NSCLC = test system: A549 NSCLC
OVCAR-8 ovarian = test system: OVCAR-8 ovarian
RXF 393 renal = test system: RXF 393 renal
M14 melanoma = test system: M14 melanoma
PC-3 prostate = test system: PC-3 prostate
BT-549 breast = test system: BT-549 breast
HOP-92 NSCLC = test system: HOP-92 NSCLC
786-0 renal = test system: 786-0 renal
UACC-257 melanoma = test system: UACC-257 melanoma
KM12 colon = test system: KM12 colon
SF-295 CNS = test system: SF-295 CNS
OVCAR-3 ovarian = test system: OVCAR-3 ovarian

Measured: TGI

Cc1nc2[nH]ncn2c(=O)c1CCCl
> 10 µM: EKVX NSCLC | A498 renal | NCI-H226 lung | HCT-15 colon | IGROV1 ovarian | HOP-62 NSCLC | DU-145 prostate | SNB-75 CNS | SNB-19 CNS | NCI-H23 lung | LOX IMVI melanoma | UACC-62 melanoma | NCI-H522 lung | SN12C renal | NCI/ADR-RES ovarian | HCC-2998 colon | SF-539 CNS | HT29 colon | UO-31 renal | SF-268 CNS | RPMI-8226 leukemia | SW-620 colon | MDA-MB-231 breast | CAKI-1 renal | MDA-MB-435 | SK-MEL-2 melanoma | MALME-3M melanoma | HCT-116 colon | COLO 205 colon | OVCAR-4 ovarian | NCI-H460 lung | SK-MEL-5 melanoma | MDA-N | U251 CNS | ACHN renal | MOLT-4 leukemia | SK-OV-3 ovarian | K-562 leukemia | CCRF-CEM leukemia | HL-60(TB) leukemia | MCF7 breast | SK-MEL-28 melanoma | SR leukemia | HS 578T breast | OVCAR-5 ovarian | TK-10 renal | T-47D breast | A549 NSCLC | OVCAR-8 ovarian | RXF 393 renal | M14 melanoma | PC-3 prostate

CN1C(=O)C(O)CC1c1ccccc1C(F)(F)F (stereo not drawn)
> 100 µM: EKVX NSCLC | A498 renal | NCI-H226 lung | HCT-15 colon | BT-549 breast | HOP-92 NSCLC | IGROV1 ovarian | HOP-62 NSCLC | 786-0 renal | DU-145 prostate | SNB-75 CNS | SNB-19 CNS | NCI-H23 lung | LOX IMVI melanoma | UACC-62 melanoma | NCI-H522 lung | SN12C renal | NCI/ADR-RES ovarian | HCC-2998 colon | SF-539 CNS | HT29 colon | UO-31 renal | RPMI-8226 leukemia | UACC-257 melanoma | SW-620 colon | MDA-MB-231 breast | CAKI-1 renal | MDA-MB-435 | SK-MEL-2 melanoma | MALME-3M melanoma | HCT-116 colon | COLO 205 colon | OVCAR-4 ovarian | NCI-H460 lung | SK-MEL-5 melanoma | MDA-N | U251 CNS | ACHN renal | KM12 colon | MOLT-4 leukemia | SK-OV-3 ovarian | CCRF-CEM leukemia | HL-60(TB) leukemia | MCF7 breast | SF-295 CNS | SK-MEL-28 melanoma | OVCAR-5 ovarian | A549 NSCLC | OVCAR-8 ovarian | RXF 393 renal | M14 melanoma | OVCAR-3 ovarian | PC-3 prostate

C#Cc1cc(Br)c(OC(=O)C(C)(C)C)c(-c2cc(C#C)cc(Br)c2OC(=O)C(C)(C)C)c1
30.3 µM: HL-60(TB) leukemia
46.4 µM: RPMI-8226 leukemia
> 100 µM: EKVX NSCLC | A498 renal | HCT-15 colon | BT-549 breast | HOP-92 NSCLC | IGROV1 ovarian | HOP-62 NSCLC | 786-0 renal | DU-145 prostate | SNB-19 CNS | NCI-H23 lung | UACC-62 melanoma | NCI-H522 lung | SN12C renal | NCI/ADR-RES ovarian | SF-539 CNS | HT29 colon | SF-268 CNS | UACC-257 melanoma | SW-620 colon | MDA-MB-231 breast | CAKI-1 renal | MDA-MB-435 | SK-MEL-2 melanoma | MALME-3M melanoma | HCT-116 colon | COLO 205 colon | OVCAR-4 ovarian | NCI-H460 lung | SK-MEL-5 melanoma | MDA-N | U251 CNS | KM12 colon | MOLT-4 leukemia | SK-OV-3 ovarian | K-562 leukemia | MCF7 breast | SF-295 CNS | SK-MEL-28 melanoma | HS 578T breast | TK-10 renal | T-47D breast | A549 NSCLC | OVCAR-8 ovarian | M14 melanoma | OVCAR-3 ovarian | PC-3 prostate
90.7 µM: HCC-2998 colon
66 µM: OVCAR-5 ovarian
73.8 µM: ACHN renal
36.1 µM: CCRF-CEM leukemia
49.1 µM: LOX IMVI melanoma
46.7 µM: RXF 393 renal

CN(C)c1ccc(/C=C2\N=C(N/N=C/c3ccccc3O)NC2=O)cc1
55.9 µM: RXF 393 renal
53 µM: HOP-62 NSCLC
59.7 µM: HOP-92 NSCLC
89.7 µM: SNB-75 CNS
59.4 µM: TK-10 renal
61.7 µM: A498 renal
> 100 µM: BT-549 breast | DU-145 prostate | SNB-19 CNS | SN12C renal | HCC-2998 colon | HT29 colon | SF-268 CNS | RPMI-8226 leukemia | MDA-MB-435 | COLO 205 colon | MDA-N | HS 578T breast | OVCAR-5 ovarian
41.1 µM: NCI-H226 lung
62.7 µM: SK-MEL-28 melanoma

CCNC12CCC(C1)C(C)(C)C2=O (stereo not drawn)
> 100 µM: EKVX NSCLC | A498 renal | NCI-H226 lung | HCT-15 colon | BT-549 breast | HOP-92 NSCLC | IGROV1 ovarian | HOP-62 NSCLC | 786-0 renal | DU-145 prostate | SNB-75 CNS | SNB-19 CNS | NCI-H23 lung | LOX IMVI melanoma | UACC-62 melanoma | SN12C renal | NCI/ADR-RES ovarian | HCC-2998 colon | UO-31 renal | RPMI-8226 leukemia | UACC-257 melanoma | SW-620 colon | CAKI-1 renal | MDA-MB-435 | SK-MEL-2 melanoma | HCT-116 colon | COLO 205 colon | OVCAR-4 ovarian | NCI-H460 lung | SK-MEL-5 melanoma | MDA-N | U251 CNS | ACHN renal | KM12 colon | MOLT-4 leukemia | SK-OV-3 ovarian | K-562 leukemia | CCRF-CEM leukemia | HL-60(TB) leukemia | MCF7 breast | SF-295 CNS | SK-MEL-28 melanoma | SR leukemia | OVCAR-5 ovarian | TK-10 renal | T-47D breast | A549 NSCLC | OVCAR-8 ovarian | RXF 393 renal | M14 melanoma | OVCAR-3 ovarian | PC-3 prostate
